Results: ChEMBL document CHEMBL3217502, “Synthesis of dual AChE/5-HT4 receptor multi-target directed ligands” (Medchemcomm, 2012)

What was measured:
[1] = target: 5-hydroxytryptamine receptor 4 (Cavia porcellus, UniProt O70528); experiment: Displacement of [3H]-GR113808 from guinea pig 5HT4 receptor by Grossman's method
Acetylcholinesterase = Acetylcholinesterase (Electrophorus electricus, UniProt O42275); experiment: Inhibition of electric eel AChE using acetylthiocholine iodide as substrate preincubated for 5 mins before substrate addition measured for 10 mins by Ellman's method
Sequence of Acetylcholinesterase (O42275 whole entry): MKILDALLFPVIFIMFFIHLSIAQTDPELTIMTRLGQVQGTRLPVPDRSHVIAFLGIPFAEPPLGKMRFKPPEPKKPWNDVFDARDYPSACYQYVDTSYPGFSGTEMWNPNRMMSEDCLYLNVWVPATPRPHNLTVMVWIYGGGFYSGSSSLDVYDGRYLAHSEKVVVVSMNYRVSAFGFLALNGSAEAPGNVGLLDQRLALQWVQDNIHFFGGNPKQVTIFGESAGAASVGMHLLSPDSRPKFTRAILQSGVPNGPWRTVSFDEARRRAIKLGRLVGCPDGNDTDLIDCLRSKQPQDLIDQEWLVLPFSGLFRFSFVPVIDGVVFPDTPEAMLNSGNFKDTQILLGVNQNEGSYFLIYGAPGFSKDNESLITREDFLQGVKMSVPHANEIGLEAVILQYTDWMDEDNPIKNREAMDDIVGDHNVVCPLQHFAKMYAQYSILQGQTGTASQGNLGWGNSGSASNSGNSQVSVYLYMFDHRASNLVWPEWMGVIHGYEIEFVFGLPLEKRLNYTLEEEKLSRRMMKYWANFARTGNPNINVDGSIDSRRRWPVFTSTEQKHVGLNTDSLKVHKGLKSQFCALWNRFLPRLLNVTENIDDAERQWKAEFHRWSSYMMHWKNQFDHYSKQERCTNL

[2] = target: 5-hydroxytryptamine receptor 4 (Homo sapiens) (UniProt Q13639); experiment: Displacement of [3H]-GR113808 from human 5HT4E receptor at 10^-6 M after 30 mins by liquid scintillation counting
Sequence of 5-hydroxytryptamine receptor 4 (Homo sapiens) (Q13639 whole entry): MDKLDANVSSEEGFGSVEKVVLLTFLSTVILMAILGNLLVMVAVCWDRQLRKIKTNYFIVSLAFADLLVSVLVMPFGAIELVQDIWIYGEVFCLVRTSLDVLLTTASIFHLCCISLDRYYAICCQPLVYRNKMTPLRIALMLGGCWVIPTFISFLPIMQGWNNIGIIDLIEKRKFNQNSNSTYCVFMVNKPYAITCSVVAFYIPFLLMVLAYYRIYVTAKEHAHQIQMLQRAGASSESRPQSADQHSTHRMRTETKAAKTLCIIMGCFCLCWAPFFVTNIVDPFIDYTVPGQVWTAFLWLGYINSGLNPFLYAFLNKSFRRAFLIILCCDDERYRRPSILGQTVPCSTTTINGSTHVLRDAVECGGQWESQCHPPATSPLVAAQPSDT

[3] = target: 5-hydroxytryptamine receptor 4 (Homo sapiens) (UniProt Q13639); experiment: Displacement of [3H]-GR113808 from human 5HT4E receptor at 10^-8 M after 30 mins by liquid scintillation counting

Sequence of 5-hydroxytryptamine receptor 4 (O70528 whole entry): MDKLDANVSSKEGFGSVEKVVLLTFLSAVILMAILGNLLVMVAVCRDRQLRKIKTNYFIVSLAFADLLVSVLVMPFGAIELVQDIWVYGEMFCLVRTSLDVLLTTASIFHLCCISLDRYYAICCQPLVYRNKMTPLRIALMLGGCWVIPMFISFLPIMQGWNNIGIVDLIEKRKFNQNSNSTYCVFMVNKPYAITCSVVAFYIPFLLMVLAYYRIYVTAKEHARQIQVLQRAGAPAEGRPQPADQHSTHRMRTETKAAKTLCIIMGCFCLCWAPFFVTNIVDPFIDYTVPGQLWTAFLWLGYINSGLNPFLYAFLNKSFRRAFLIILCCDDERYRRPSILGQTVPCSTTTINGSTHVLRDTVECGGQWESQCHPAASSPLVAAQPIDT

| Compound | Ki [1] [nM] | IC50 (Acetylcholinesterase) [nM] | inhibition [2] [%] | inhibition [3] [%] |
| --- | --- | --- | --- | --- |
| c1ccc(CCCN2CCC(COc3nc4ccsc4n4cccc34)CC2)cc1 | 75.8 |  |  |  |
| Cc1csc2nc(OCC3CCN(Cc4ccccc4)CC3)c3cccn3c12 | 22 | 165 | 98 | 38 |
| c1cc2c(OCC3CCN(Cc4ccncc4)CC3)nc3ccsc3n2c1 | 174 |  |  |  |
| Cc1csc2nc(OCC3CCN(CC4CCCC4)CC3)c3cccn3c12 | 21.3 | 553 | 100 | 78 |
| c1cc2c(OCC3CCN(CC4CCCC4)CC3)nc3ccsc3n2c1 | 44.8 | 597 | 100 | 39 |
| c1ccc(CN2CCC(COc3nc4ccsc4n4cccc34)CC2)cc1 | 52.9 | 551 | 96 | 30 |
| COc1ccc(CN2CCC(COc3nc4ccsc4n4cccc34)CC2)cc1 | 216 |  |  |  |
| c1ccc(CN2CCC(CCOc3nc4ccsc4n4cccc34)CC2)cc1 |  | 561 |  |  |
| Cc1csc2nc(OCC3CCN(CC4CCCCC4)CC3)c3cccn3c12 | 4.2 | 95.8 | 99 | 60 |
| c1ccc(CCN2CCC(COc3nc4ccsc4n4cccc34)CC2)cc1 | 49.8 |  |  |  |
| c1cc2c(OCC3CCN(CC4CCC4)CC3)nc3ccsc3n2c1 | 25.9 |  |  |  |
| c1cc2c(OCC3CCN(CC4CC4)CC3)nc3ccsc3n2c1 | 53 |  |  |  |
| c1cc2c(OCC3CCN(CC4CCCCC4)CC3)nc3ccsc3n2c1 | 79.9 | 206 | 99 | 22 |
| CCCN1CCC(COc2nc3scc(C)c3n3cccc23)CC1 | 6 | 5000 |  |  |
| Fc1ccc(CN2CCC(COc3nc4ccsc4n4cccc34)CC2)cc1 | 99 |  |  |  |
